Measurements taken from ChEMBL document CHEMBL4270493, “Recent updates on third generation EGFR inhibitors and emergence of fourth generation EGFR inhibitors to combat C797S resistance” (Eur J Med Chem, 2017).

What was measured:
[1] = species on record: Homo sapiens; assay: Antitumor activity in patient with EGFR T790M mutant negative NSCLC assessed as overall response rate at 500 mg BID during phase 1/2 study; format: functional
[2] = species on record: Homo sapiens; assay: Toxicity in patient with EGFR T790M mutant NSCLC assessed as induction of grade 3 QTc prolongation at 500 mg BID during phase 1/2 study; format: organism-based; details: in vivo
[3] = species on record: Homo sapiens; assay: Antitumor activity in patient with EGFR T790M mutant NSCLC assessed as objective response rate at 500 mg BID during phase 1/2 study; format: functional
[4] = species on record: Homo sapiens; assay: Toxicity in patient with EGFR T790M mutant NSCLC assessed as drug discontinuation rate at 500 mg BID during phase 1/2 study; format: organism-based; details: in vivo
[5] = species on record: Homo sapiens; assay: Antitumor activity in patient with EGFR T790M mutant NSCLC assessed as disease control rate at 500 mg BID during phase 1/2 study; format: functional
[6] = species on record: Homo sapiens; assay: Toxicity in patient with EGFR T790M mutant NSCLC assessed as induction of grade 3 hyperglycemia at 500 mg BID during phase 1/2 study; format: organism-based; details: in vivo

Work on C=CC(=O)Nc1cccc(Nc2nc(Nc3ccc(N4CCN(C(C)=O)CC4)cc3OC)ncc2C(F)(F)F)c1 [ROCILETINIB] yielded an Activity [1] of 37%, an Activity [2] of 2.5% and an Activity [3] of 60%. For the same compound, the Activity [4] was 2.5%, the Activity [5] was 90% and the Activity [6] was 17%.
